Measurements from US20240131013A1, “TETRAHYDRO-1H-PYRIDO[3,4-b]INDOLE ANTI-ESTROGENIC DRUGS” (Olema Pharmaceuticals, Inc., priority 2015, published 2024).
pIC50: −log10 of the molar value. Entries after “also recorded” stand apart in the source; their conditions may differ.

Assays:
[1] = system: estrogen-responsive reporter gene, ERE-tk109-Luc; test: Inhibition of E2-induced transcription, ERE-tk109-Luc reporter in MCF-7 cells; type: cell-based; settings: Homo sapiens, MCF7; read-out: Inhibition of E2-induced transcription in breast cells, IC50
Description: Representative compounds were tested for their inhibitory activity of estrogen according to the assay methods described in Hodges-Gallagher, L., Valentine, C. V., El Bader, S. and Kushner, P. J. (2007) “Histone Deacetylase Inhibitors Enhance the Efficacy of Hormonal Therapy Agents on Breast Cancer Cells and Blocks Anti-estrogen-Driven Uterine Cell Proliferation” Breast Cancer Res Treat, November; 105(3):297-309. Specifically, MCF-7 cells were transiently transfected with an estrogen-responsive reporter gene, ERE-tk109-Luc. Transfected cells were treated with antiestrogens in hormone-depleted medium in the presence of 100 pM 17β-estradiol (E2) for 22 hours. Luciferase activity was normalized to activity of E2 alone and IC50's were calculated using the least squares fit method.
A representative result for inhibition of E2-induced transcription in breast cells (nM) is shown below in tabular form: […]

[2] = system: AP activity in ECC-1 cells; test: Alkaline phosphatase (AP) assay in ECC-1 uterine cells, agonist mode; type: cell-based, human; settings: for AP Agonist Act. (% of E2): ECC-1 cells, without E2; for Induction of Alkaline Phosphatase (AP) % E2: mean of n experiments; for Induction of AP activity in uterine cells (% E2): representative result
Description: Method for performing the alkaline phosphatase (AP) assay. ECC-1 cells were trypsinized and resuspended in hormone-depleted media and plated at a density of 15k cells per well into a 96-well plate for at least 4 hours. Cells were treated with antiestrogens for 3 days and plates were subsequently frozen at −80° C. Thawed plates were incubated with a chromogenic substrate of AP, p-nitrophenyl phosphate (Thermo Fisher Scientific), for 40 minutes at 40° C. and absorbances were read at 405 nm. AP activity was normalized to the activity of E2 alone. […] A representative result for induction of AP activity in uterine cells (% E2) is shown below in tabular form: […]

[3] = system: AP activity in ECC-1 cells; test: Alkaline phosphatase (AP) assay in ECC-1 uterine cells co-treated with 500 pM E2, antagonist mode; type: cell-based, human; settings: for AP Antagonist Act. (% of E2): ECC-1 cells, co-treated with 500 pM E2
Description: Method for performing the alkaline phosphatase (AP) assay. ECC-1 cells were trypsinized and resuspended in hormone-depleted media and plated at a density of 15k cells per well into a 96-well plate for at least 4 hours. Cells were treated with antiestrogens for 3 days and plates were subsequently frozen at −80° C. […] AP activity was normalized to the activity of E2 alone.

[4] = target: T1, ERα (Homo sapiens (Human), UniProt P03372); test: ER degradation, immunoblot of MCF-7 protein extracts; type: cell-based; settings: 100 nM, 24 hours
Description: MCF-7 cells were treated with 100 nM anti-estrogen for 24 hours in serum-free medium and protein extracts immunoblotted with D12 antibody to ERα and β-actin (Santa Cruz Biotechnology). The numbers below the blots represent the optical density of ERα bands of each treatment relative to percent vehicle after normalization to β-actin.
Target sequence in this assay (P03372 whole entry): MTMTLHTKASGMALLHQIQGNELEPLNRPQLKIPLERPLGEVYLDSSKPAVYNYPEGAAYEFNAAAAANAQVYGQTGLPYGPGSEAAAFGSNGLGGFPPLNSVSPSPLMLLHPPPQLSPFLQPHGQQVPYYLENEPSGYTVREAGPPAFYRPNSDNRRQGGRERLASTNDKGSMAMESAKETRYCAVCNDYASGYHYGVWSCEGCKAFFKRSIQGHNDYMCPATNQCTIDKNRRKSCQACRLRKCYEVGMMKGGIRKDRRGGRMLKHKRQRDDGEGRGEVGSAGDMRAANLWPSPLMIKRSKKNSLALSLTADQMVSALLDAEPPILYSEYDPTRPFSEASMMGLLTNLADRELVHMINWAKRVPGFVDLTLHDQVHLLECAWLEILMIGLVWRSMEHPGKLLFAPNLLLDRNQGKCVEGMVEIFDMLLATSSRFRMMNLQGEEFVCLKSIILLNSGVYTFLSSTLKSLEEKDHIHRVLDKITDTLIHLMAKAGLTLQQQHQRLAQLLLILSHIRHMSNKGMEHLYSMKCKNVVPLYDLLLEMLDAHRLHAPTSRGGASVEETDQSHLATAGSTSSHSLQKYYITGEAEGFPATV

[5] = target: T1, ERα; test: ERα levels in breast cells, in-cell western (Colorimetric In-Cell ELISA); type: cell-based
Description: IC50's were calculated using the least squares fit method. Error bars represent S.E.M from triplicate wells.
Target sequence in this assay (P03372 whole entry): as above

[6] = target: T1, ERα; test: ERα binding, LanthaScreen Competitive Binding Assay (TR-FRET)
From the text: Compounds were screened for their ability to displace a fluorescent labelled tracer ERα ligand via time resolved fluorescent energy transfer using the LanthaScreen Competitive Binding Assay screening service (Thermo Fisher Scientific).
Target sequence in this assay (P03372 whole entry, looked up): as the sequence (P03372 whole entry) above

[7] = system: Clone 18 cells (MCF7/Her2/neu); test: Xenograft study, MCF7/Her2/neu tumors in mice; type: in vivo, athymic ovariectomized nu/nu mice; settings: oral gavage, doses as low as 10 mg/kg
Description: Xenograft studies were conducted by the Preclinical Therapeutics Core at the University of California, San Francisco in accordance with the Institutional Animal Care and Use Committee (IACUC) guidelines. Clone 18 cells (MCF7/Her2/neu) cells were grown in culture and implanted into athymic ovariectomized nu/nu mice. To stimulate tumor growth 0.36 mg estradiol 90 day release pellets (Innovative Research, Saratoga, FL) were implanted along with cells. When tumors reached 150-250 cubic millimeters the pellets were exchanged for 0.18 mg estradiol 90 day release pellets and divided into groups of six mice per treatment group. One of those groups received vehicle only (0.5% CMC+8% DMSO), and Compound B and Compound C each had 2 groups treated with either 10 or 100 mg/kg compound. Compounds were administered by oral gavage twice daily, except once daily on weekends/holidays for the first 21 days, and once daily after day 21. Tumors and bodyweight were measured twice weekly.

[8] = Pharmacokinetics in mice after oral gavage; type: in vivo, BALB/c female mice; settings: 5 mg/kg oral gavage; for Oral drug exposure, free fraction taken into account: mice, 0-24 hours
Description: Pharmacokinetics were studied in BALB/c female mice. For each arm, three BALB/c female mice were given 5 mg/kg of compound in 0.5% CMC formulation by oral gavage. Concentration of compounds in mouse plasma and their metabolites were analyzed at each time point using LC-MS/MS. The concentrations were adjusted for the free fraction of drug in mouse plasma (method below). Area under the curve was calculated using the trapezoidal rule for 0-24 hours.

[9] = system: PR; settings: De Savi; cited from earlier work
[10] = 100 nM dose, mean of n experiments

| SMILES | AP Agonist Act. (% of E2) [2] | Induction of Alkaline Phosphatase (AP) % E2 [2] [% E2] | Induction of AP activity in uterine cells (% E2) [2] [% E2] | Residual AP activity with 100 nM compound plus E2 (% of E2 alone) ([3]; 100 nM antiestrogen, 500 pM E2) [% E2] | AP Antagonist Act. (% of E2) [3] | Residual AP activity with 100 nM compound plus E2 (% of E2 alone) [3, 10] [% E2] | also measured |
| --- | --- | --- | --- | --- | --- | --- | --- |
| C[C@@H]1Cc2c([nH]c3ccccc23)[C@@H](c2c(F)cc(/C=C/C(=O)O)cc2F)N1CC(C)(C)F [AZD9496, (E)-3-(3,5-Difluoro-4-((1R,3R)-2-(2-fluoro-2-methylpropyl)-3-methyl-2,3,4,9-tetrahydro-1H-pyrido[3,4-b]indol-1-yl)phenyl)acrylic Acid] | 35 % of E2 | 39 | 35 |  |  |  | pIC50 [1]: 8.89; Estrogen-like activity as AP agonist and antagonist in comparison to Compounds A-D ([2]; AP agonist and antagonist modes): approximately 10 fold |
| CCCN1CC(Oc2ccc([C@@H]3c4[nH]c5ccccc5c4C[C@@H](C)N3CC(C)(C)F)cc2F)C1 [Compound A, (1R,3R)-2-(2-fluoro-2-methylpropyl)-1-(3-fluoro-4-((1-propylazetidin-3-yl)oxy)phenyl)-3-methyl-2,3,4,9-tetrahydro-1H-pyrido[3,4-b]indole] | 3.96 % of E2 |  | 3.96 | 3.15 | 3.15 % of E2 |  |  |
| CCCN1CC(Oc2ccc([C@@H]3c4[nH]c5ccccc5c4C[C@@H](C)N3CC(C)(C)F)cc2)C1 [Compound B, (1R,3R)-2-(2-fluoro-2-methylpropyl)-3-methyl-1-(4-((1-propylazetidin-3-yl)oxy)phenyl)-2,3,4,9-tetrahydro-1H-pyrido[3,4-b]indole] | 2.18 % of E2 | 1.78 | 2.18 | 1.96 | 1.96 % of E2 | 1.56 | AP activity of ECC-1 cells normalized to the effect of 500 pM 17β-estradiol ([2]; compound alone): 2.18%; AP activity of ECC-1 cells co-treated with 500 pM 17β-estradiol, % of the activity 17β-estradiol would produce ([3]; co-treated with 500 pM 17β-estradiol): 1.96%; Estrogen receptor degradation in MCF-7 cells (immunoblot, FIG. 7) [4]: degrades the estrogen receptor; Relative change in ERα levels in breast cells % Veh [5]: 45 % Veh; Relative change in ERα levels in breast cells pIC50 [5]: 8.57; Estrogen receptor degradation in MCF-7 cells (in-cell western, FIG. 2) ([5]; 24 hours): degrades the estrogen receptor; ERα binding activity in words [6]: comparable activity to fulvestrant, Goodacre Compound 102, and Goodacre Compound 107; ERα binding pIC50 [6]: 8.57; Effect on tumor size in xenografted mice [7]: shrinks MCF-7 (HER2/neu) tumors; also recorded: outstandingly potent in shrinking human breast cancer xenografts; Oral bioavailability and half-life ([8]; BALB/c mice): high oral bioavailability and half-life; Oral drug exposure, free fraction taken into account [8]: better 24 hour drug exposure compared to other compounds; also recorded: substantially higher oral drug exposure |
| C[C@@H]1Cc2c([nH]c3ccccc23)[C@@H](c2ccc(OCCN3CC(CF)C3)cc2)N1CC(C)(C)F [Compound C, (1R,3R)-2-(2-fluoro-2-methylpropyl)-1-(4-(2-(3-(fluoromethyl)azetidin-1-yl)ethoxy)phenyl)-3-methyl-2,3,4,9-tetrahydro-1H-pyrido[3,4-b]indole] | 3.1 % of E2 | 1.71 | 3.1 | 2.5 | 2.5 % of E2 | 1.76 | Relative change in ERα levels in breast cells % Veh [5]: 42 % Veh; Relative change in ERα levels in breast cells pIC50 [5]: 8.87; ERα binding activity in words [6]: comparable activity to fulvestrant, Goodacre Compound 102, and Goodacre Compound 107; Effect on tumor size in xenografted mice [7]: outstandingly potent in shrinking human breast cancer xenografts; Oral drug exposure, free fraction taken into account [8]: substantially higher oral drug exposure |
| C[C@@H]1Cc2c([nH]c3ccccc23)[C@@H](c2c(F)cc(OCCN3CC(CF)C3)cc2F)N1CC(C)(C)F [Compound D, (1R,3R)-1-(2,6-difluoro-4-(2-(3-(fluoromethyl)azetidin-1-yl)ethoxy)phenyl)-2-(2-fluoro-2-methylpropyl)-3-methyl-2,3,4,9-tetrahydro-1H-pyrido[3,4-b]indole, reference compound] | 3.37 % of E2 | 4.45 | 3.37 | 4.07 | 4.07 % of E2 | 3.98 |  |
| C[C@]12CC[C@@H]3c4ccc(O)cc4C[C@@H](CCCCCCCCC[S+]([O-])CCCC(F)(F)C(F)(F)F)[C@H]3[C@@H]1CC[C@@H]2O (stereo partly shown) [Fulvestrant, reference compound] |  | −0.04 | −0.13 | −2.2 |  | −0.09 |  |
| CCCN1CC(Oc2cc(F)c([C@@H]3c4[nH]c5ccccc5c4C[C@@H](C)N3CC(C)(C)F)c(F)c2)C1 [Goodacre Compound 107, (1R,3R)-1-(2,6-difluoro-4-((1-propylazetidin-3-yl)oxy)phenyl)-2-(2-fluoro-2-methylpropyl)-3-methyl-2,3,4,9-tetrahydro-1H-pyrido[3,4-b]indole, reference compound] |  | 0.00 |  |  |  | 1.03 |  |
| Oc1ccc2c(c1)CC[C@H](c1ccccc1)[C@@H]2c1ccc(OCCN2CCCC2)cc1 [Lasofoxifene, reference compound] |  |  | 86 | 83 |  |  |  |
| C[C@@H]1Cc2c([nH]c3ccccc23)[C@@H](c2ccc(/C=C/C(=O)O)cc2)N1CC(C)(C)F [WO 2014/191726 Example 2] |  |  |  |  |  |  | PR agonist pIC50 [9]: <5.5 |
